In patent US20130197030A1, “Substituted 1,3-Dioxanes and There Uses” (Evolva Sa, priority 2007, published 2013):

Biological target: T1, Human Recombinant (E. coli) PPARgamma (Homo sapiens, UniProt P37231)
T1 construct: host or cells: E. coli
T1 sequence (P37231 1-505): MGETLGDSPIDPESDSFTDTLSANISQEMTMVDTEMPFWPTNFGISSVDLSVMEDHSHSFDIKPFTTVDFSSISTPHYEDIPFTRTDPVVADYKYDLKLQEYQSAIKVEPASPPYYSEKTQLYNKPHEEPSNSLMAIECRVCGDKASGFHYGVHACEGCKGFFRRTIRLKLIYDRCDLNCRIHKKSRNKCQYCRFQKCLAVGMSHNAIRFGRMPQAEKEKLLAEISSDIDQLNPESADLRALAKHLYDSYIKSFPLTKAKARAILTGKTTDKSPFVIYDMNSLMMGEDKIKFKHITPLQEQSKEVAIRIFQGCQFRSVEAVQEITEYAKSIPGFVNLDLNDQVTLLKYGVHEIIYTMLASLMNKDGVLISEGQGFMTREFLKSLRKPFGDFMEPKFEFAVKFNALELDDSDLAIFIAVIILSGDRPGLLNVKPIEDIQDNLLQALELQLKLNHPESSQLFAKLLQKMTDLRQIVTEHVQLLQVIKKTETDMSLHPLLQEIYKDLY
Experiment: PPAR gamma binding assay
Settings: at 30 μM
Experimental: Incubation: 120 min. at 4° C.
The results are expressed as a percent of control specific binding ((measured specific binding/control specific binding)×100) obtained in the presence of the test compounds. The IC50 values (concentration causing a half-maximal inhibition of control specific binding) and Hill coefficients (nil) were determined by non-linear regression analysis of the competition curves generated with mean replicate values using Hill equation curve fitting (Y=D+[(A−D)/(1+(C/C50)nH)], where Y=specific binding, D=minimum specific binding, A=maximum specific binding, C=compound concentration, C50=IC50, and nH=slope factor). This analysis was performed using a software developed at Cerep (Hill software) and validated by comparison with data generated by the commercial software SigmaPlot 4.0 for Windows® (© 1997 by SPSS Inc.). The inhibition constants (Ki) were calculated using the Cheng Prusoff equation (Ki=IC50/(1+(L/KD)), where L=concentration of radioligand in the assay, and KD=affinity of the radioligand for the receptor).

PPARγ binding: no binding
Structure (SMILES): O=C(O)CC/C=C\C[C@H]1CO[C@@H](c2ccccc2Cl)O[C@H]1c1ccccc1O [Compound B, (Z)-6-((2R,4R,5S)-2-(2-chlorophenyl)-4-(2-hydroxyphenyl)-1,3-dioxan-5-yl)hex-4-enoic acid, reference compound]
